From patent EP0103830A2, “Phenylethylemine derivatires as growth stimulators” (priority 1982, dated 1984)
Where a name gives a salt, the structure may show the parent alone.

Assays:
Assay type in all cases: in vivo
[1] = Feeding trial (Beispiel 3): feed intake, weight gain, feed conversion; conditions: 25 ppm in feed, n = 6, whole trial period (13 Tage)
Description: (§1) Die Tiere wurden 2 Tage an die neuen Haltungsbedingungen adaptiert, wobei generell das Versuchsfutter ohne Wirkstoffzusatz verabreicht wurde. Am dritten Versuchstag wurden die Tiere randomisiert und anschließend die Versuchsgruppen so gebildet, daß sowohl die Mittelwerte als auch die Streuungen in den Körpergewichten zwischen den Gruppen gleich waren. Nach einer 5-tägigen Vorperiode wurde eine 8-tägige Hauptperiode durchgeführt, in denen Futteraufnahme, Zuwachs und Futterverwertung bestimmt wurden.
(§2) Es wurden folgende Behandlungen geprüft: • b 1) Negativkontrolle (n = 12) • b 2) 25 ppm (Wirkstoff Herstellungsbeispiel 1) (n = 6)

[2] = Feeding trial (Beispiel 2): feed intake, weight gain, feed conversion; conditions: 0,2 ppm in feed, whole trial period (12 Tage)
Description: as §1, with “7-tägige” for “8-tägige”
Es wurden folgende Behandlungen geprüft: • b 1) Negativkontrolle (n = 24) • b 2) 0,2 ppm (Wirkstoff Herstellungsbeispiel 1)

[3] = Feeding trial (Beispiel 1): feed intake, weight gain, feed conversion; conditions: 25 ppm in feed, n = 6, whole trial period (13 Tage), Ratten weiblich SPF Wistar
Description: as §1, §2

[4] = Feeding trial in rats over 15 days (Beispiel 7), results relative to control; conditions: 25 ppm in feed, 15 Tage, Ratten weiblich SPF-Wistar; Kontrolle = 100 %
Description: Vor Beginn des Fütterungsversuches wurden die Ratten zwei Tage lang an die neuen Haltungsbedingungen adaptiert, wobei generell das Versuchsfutter ohne Wirkstoffzusatz verabreicht wurde. Am dritten Versuchstag wurden die Tiere randomisiert und anschließend die Versuchsgruppen so gebildet, daß sowohl die Mittelwerte als auch die Streuungen in den Körpergewichten zwischen den Gruppen gleich waren.
Der Fütterungsversuch, in dem die Futteraufnahme, der Körpergewichtszuwachs und die Futterverwertung individuell bestimmt wurden, erstreckte sich über 15 Tage.
Als Wirkstoffe wurden dem Futter untergemischt: • 1-(3,4-Dihydroxyphenyl)-2-[1-methyl-2-(3,4-methylendioxyphenyl)ethylamino]ethanolhydrochlorid (= Verbindung I), • 2-Amino-1-(3-hydroxyphenyl)ethanolhydrochlorid (= Verbindung II), • 2-Amino-1-(3-hydroxyphenyl)propanolh^ydrogentartrat (= Verbindung III), • 1-(4-Hydroxyphenyl)-2-(1-methyl-3-phenylpropylamino)-propanolhydrochlorid (= Verbindung IV), • 2-Ethylamino-1-(3-hydroxyphenyl)ethanolhydrochlorid (= Verbindung V), • 1- (3,5-Dihydroxyphenyl) -2- (3-phenylpropylamino) propanol als Salz der 4-Aminobenzoesäure (= Verbindung VI), • 1-(3-Hydroxyphenyl)-2-(1,1-dimethyl-2-phenylethylamino)-ethanol als Salz der 4-Aminobenzoesäure (= Verbindung VII), • 5-[2-[1,1-Dimethylethyl)amino]-1-hydroxyethyl]-2-hydroxy- benzamid . HCl (= Verbindung VIII)
Ratten, weiblich, SPF-Wistar 36 Tiere/Versuch Gewicht: 90 bis 150 g Futter: Haltungsdiät für Ratten mit folgender Zusammensetzung: […]

[5] = Feeding trial (Beispiel 4): feed intake, weight gain, feed conversion; conditions: 25 ppm in feed, n = 6, whole trial period (13 Tage)
Description: as §1
(§3) Es wurden folgende Behandlungen geprüft: • b 1) Negativkontrolle (n = 12) • b 2) 25 ppm (Wirkstoff Herstellungsbeispiel 2) (n = 6)

[6] = Feeding trial (Beispiel 6): feed intake, weight gain, feed conversion; conditions: 25 ppm in feed, n = 6, whole trial period (13 Tage)
Description: as §1, §3

[7] = Feeding trial (Beispiel 5): feed intake, weight gain, feed conversion; conditions: 25 ppm in feed, n = 6, whole trial period (13 Tage)
Description: as §1, §3

What does the source list for `COc1ccc(C(O)CNC(C)(C)C)cc1` (stereo not drawn) [Herstellungsbeispiel 1, 2-t-Butylamino-1-(4-methoxyphenyl)-ethanol]?
Futterverwertung ([1]; Negativkontrolle 5,04): 4,41 g/g; Zuwachs ([1]; Negativkontrolle 37,0): 42,4 g; Futteraufnahme ([1]; Negativkontrolle 182): 187 g; Futterverwertung ([2]; Negativkontrolle 4,88): 4,21 g/g; Zuwachs ([2]; Negativkontrolle 41,0): 50,5 g; Futteraufnahme ([2]; Negativkontrolle 200): 213 g; Futterverwertung ([3]; Negativkontrolle 5,62): 4,03 g/g; Zuwachs ([3]; Negativkontrolle 27,9): 43,7 g; Futteraufnahme ([3]; Negativkontrolle 153): 175 g

Which results are given for `CC(N)C(O)c1cccc(O)c1` (stereo not drawn) [Verbindung III, 2-Amino-1-(3-hydroxyphenyl)propanolhydrogentartrat]?
Futteraufnahme [4]: 99%; Futterverwertung [4]: 96,1%; Zuwachs [4]: 103%

For `CC(Cc1ccc2c(c1)OCO2)NCC(O)c1ccc(O)c(O)c1` (stereo not drawn) [Verbindung I, 1-(3,4-Dihydroxyphenyl)-2-[1-methyl-2-(3,4-methylendioxyphenyl)ethylamino]ethanolhydrochlorid], which Futteraufnahme [4] is on record?
Its Futteraufnahme is 104%.

And the Futterverwertung [4]?
Its Futterverwertung is 92,9%.

And the Zuwachs [4]?
Its Zuwachs is 112%.

Which Futteraufnahme [4] does the source give for `NCC(O)c1cccc(O)c1` (stereo not drawn) [Verbindung II, 2-Amino-1-(3-hydroxyphenyl)ethanolhydrochlorid] here?
Its Futteraufnahme is 98%.

And the Futterverwertung [4]?
Its Futterverwertung is 91,6%.

What about the Zuwachs [4] of the same compound?
Its Zuwachs is 107%.

Which Futterverwertung ([5]; Negativkontrolle 4,75) does the source give for `CC(C)(C)NCC(O)c1cc(Br)c(O)c(Br)c1` (stereo not drawn) [Herstellungsbeispiel 2] here?
Its Futterverwertung is 4,41 g/g.

What about the Zuwachs ([5]; Negativkontrolle 41,3) of the same compound?
Its Zuwachs is 45,1 g.

And the Futteraufnahme ([5]; Negativkontrolle 196)?
Its Futteraufnahme is 199 g.

What about the Futterverwertung ([6]; Negativkontrolle 5,04) of the same compound?
The Futterverwertung was 4,36 g/g.

And the Zuwachs ([6]; Negativkontrolle 37,0)?
The Zuwachs was 43,2 g.

What about the Futteraufnahme ([6]; Negativkontrolle 182) of the same compound?
Its Futteraufnahme is 183 g.

What about the Futterverwertung ([7]; Negativkontrolle 5,62) of the same compound?
The Futterverwertung was 3,96 g/g.

What about the Zuwachs ([7]; Negativkontrolle 27,9) of the same compound?
The Zuwachs was 43,4 g.

And the Futteraufnahme ([7]; Negativkontrolle 152)?
Its Futteraufnahme is 171 g.

With `CCNCC(O)c1cccc(O)c1` (stereo not drawn) [Verbindung V, 2-Ethylamino-1-(3-hydroxyphenyl)ethanolhydrochlorid] as the compound, how does the Futteraufnahme [4] read?
Its Futteraufnahme is 104%.

What about the Futterverwertung [4] of the same compound?
The Futterverwertung was 90,4%.

What about the Zuwachs [4] of the same compound?
The Zuwachs was 115%.

With `CC(CCc1ccccc1)NC(C)C(O)c1ccc(O)cc1` (stereo not drawn) [Verbindung IV, 1-(4-Hydroxyphenyl)-2-(1-methyl-3-phenylpropylamino)-propanolhydrochlorid] as the compound, how does the Futteraufnahme [4] read?
Its Futteraufnahme is 101,7%.

And the Futterverwertung [4]?
The Futterverwertung was 96,9%.

What about the Zuwachs [4] of the same compound?
Its Zuwachs is 105%.

Which Futteraufnahme [4] does the source give for `CC(C)(C)NCC(O)c1ccc(O)c(C(N)=O)c1` (stereo not drawn) [Verbindung VIII, 5-[2-[(1,1-Dimethylethyl)amino]-1-hydroxyethyl]-2-hydroxy-benzamid . HC1] here?
Its Futteraufnahme is 106%.

And the Futterverwertung [4]?
The Futterverwertung was 84,8%.

And the Zuwachs [4]?
The Zuwachs was 125,0%.
